# Measurements as given in patent US9440964B2, “Pesticidal compositions and processes related thereto” (Dow AgroSciences LLC, priority 2011, dated 2016).
# Columns and labels:
# BAW (Spodoptera exigua) = assay: Bioassay on Beet Armyworm (BAW), 128-well diet tray; format: in vivo; conditions: percent mortality, second instar larvae, five to seven days; for pest or weed control at 50 µg/cm2: Spodoptera exigua, 168 h, 50 μg/cm^2 on diet, read-out: Rating BAW
# Protocol: (§1) Certain molecules disclosed in this document were tested against BAW and CEW using procedures described in the following examples. In the reporting of the results, the “BAW & CEW Rating Table” was used (See Table Section).
# Bioassays on BAW (Spodoptera exigua)
# (§2) Trays were covered with a clear self-adhesive cover and held at 25° C., 14:10 light-dark for five to seven days. Percent mortality was recorded for the larvae in each well; activity in the eight wells was then averaged. The results are indicated in the table entitled “Table ABC: Biological Results” (See Table Section).
# CEW (Helicoverpa zea) = assay: Bioassay on Corn Earworm (CEW), 128-well diet tray; format: in vivo; conditions: percent mortality, second instar larvae, five to seven days; for pest or weed control at 0.5 µg/cm2 / pest or weed control at 50 µg/cm2: Helicoverpa zea, 168 h; for pest or weed control at 0.5 µg/cm2: 0.5 μg/cm^2 on diet, read-out: Rating CEW (*Tested at 0.5 μg/cm^2); for pest or weed control at 50 µg/cm2: 50 μg/cm^2 on diet, read-out: Rating CEW
# Protocol: as §1
# Bioassays on CEW (Helicoverpa zea)
# as §2
SMILES,pest or weed control at 50 µg/cm2 (BAW (Spodoptera exigua)) [%],pest or weed control at 0.5 µg/cm2 (CEW (Helicoverpa zea)) [%],pest or weed control at 50 µg/cm2 (CEW (Helicoverpa zea)) [%],Rating BAW (**Tested at 12.5 μg/cm^2) (BAW (Spodoptera exigua); 12.5 μg/cm^2 on diet),Rating CEW (**Tested at 12.5 μg/cm^2) (CEW (Helicoverpa zea); 12.5 μg/cm^2 on diet)
O=C(/N=C1\SCC(=O)N1c1ccccc1Cc1ccccc1)Nc1ccc(-c2ncn(-c3ccc(OC(F)(F)F)cc3)n2)cc1 [Molecule A105],50 to 100,50 to 100,–,–,–
"COc1ccc(N/C(=N/C(=O)Nc2ccc(-c3ncn(-c4ccc(C(F)(F)F)cc4)n3)cc2)SCOC(=O)C(C)C)c(C)c1 [Molecule A1, (E)-((N′-(4-methoxy-2-methylphenyl)-N-((4-(1-(4-(trifluoromethyl)phenyl)-1H-1,2,4-triazol-3-yl)phenyl)carbamoyl)carbamimidoyl)thio) methyl isobutyrate]",50 to 100,–,50 to 100,–,–
Cc1cc(C)c(N2CC(C)CS/C2=N\C(=O)Nc2ccc(-c3ncn(-c4ccc(OC(F)(F)F)cc4)n3)cc2)c(C)c1 (stereo not drawn) [Molecule A41],50 to 100,–,50 to 100,–,–
O=C(/N=C(\S)Nc1ccccc1C1CC1)Nc1ccc(-c2ncn(-c3ccc(OC(F)(F)F)cc3)n2)cc1 [Molecule A63],50 to 100,50 to 100,–,–,–
CCc1cccc(C)c1N/C(S)=N/C(=O)Nc1ccc(-c2ncn(-c3ccc(OC(F)(F)F)cc3)n2)cc1 [Molecule A97],50 to 100,50 to 100,–,–,–
CC(C)n1nccc1N/C(S)=N/C(=O)Nc1ccc(-c2ncn(-c3ccc(OC(F)(F)F)cc3)n2)cc1 [Molecule A119],50 to 100,0 to 50,–,–,–
Cc1ccc(Cl)cc1N1C(=O)CS/C1=N\C(=O)Nc1ccc(-c2ncn(-c3ccc(OC(F)(F)F)cc3)n2)cc1 [Molecule A76],50 to 100,50 to 100,–,–,–
CC(C)C(=O)OCS/C(=N/C(=O)Nc1ccc(-c2ncn(-c3ccc(OC(F)(F)F)cc3)n2)cc1)Nc1c(Cl)cccc1Cl [Molecule A58],50 to 100,–,50 to 100,–,–
Cc1cc(C)c(N/C(S)=N/C(=O)Nc2ccc(-c3ncn(-c4ccc(OC(F)(F)F)cc4)n3)cc2)c(C)c1 [Molecule A49],50 to 100,–,50 to 100,–,–
Cc1ccc(N/C(S)=N/C(=O)Nc2ccc(-c3ncn(-c4ccc(OC(F)(F)F)cc4)n3)cc2)c(C(C)C)c1 [Molecule A84],50 to 100,50 to 100,–,–,–
Cc1cccc(Cl)c1N1C(=O)CS/C1=N\C(=O)Nc1ccc(-c2ncn(-c3ccc(OC(F)(F)F)cc3)n2)cc1 [Molecule A74],50 to 100,50 to 100,–,–,–
Cc1cccc(N2C(=O)CS/C2=N\C(=O)Nc2ccc(-c3ncn(-c4ccc(OC(F)(F)F)cc4)n3)cc2)c1C [Molecule A75],50 to 100,50 to 100,–,–,–
"CC(C)c1ccccc1N1C(=O)CS/C1=C\C(=O)Nc1ccc(-c2ncn(-c3ccc(OC(F)(F)F)cc3)n2)cc1 [Molecule A24, (Z)-2-(3-(2-isopropylphenyl)-4-oxothiazolidin-2-ylidene)-N-(4-(1-(4-(trifluoromethoxy)phenyl)-1H-1,2,4-triazol-3-yl)phenyl)acetamide]",50 to 100,–,50 to 100,–,–
"CC(C)c1ccccc1N/C(S)=N/C(=O)Nc1ccc(-c2ccn(-c3ccc(OC(F)(F)F)cc3)n2)cc1 [Molecule A114, N-[[(2-isopropyllphenyl)amino]thioxomethyl]-N′-((4-(1-(4-(trifluoromethoxy)phenyl)-1H-pyrazol-3-yl)phenyl))urea]",50 to 100,50 to 100,–,–,–
Cc1ccc(N/C(S)=N/C(=O)Nc2ccc(-c3ncn(-c4ccc(OC(F)(F)F)cc4)n3)cc2)c(Cl)c1 [Molecule A73],50 to 100,50 to 100,–,–,–
Cc1cc(C)c(N/C(=N\C(=O)Nc2ccc(-c3ncn(-c4ccc(OC(F)(F)F)cc4)n3)cc2)SCOC(=O)C(C)C)c(C)c1 [Molecule A59],50 to 100,–,50 to 100,–,–
CCc1cccc(C)c1N/C(=N\C(=O)Nc1ccc(-c2ncn(-c3ccc(OC(F)(F)F)cc3)n2)cc1)SCOC(=O)C(C)C [Molecule A55],50 to 100,–,50 to 100,–,–
"COc1ccc(N/C(=N/C(=O)Nc2ccc(-c3ncn(-c4ccc(C(F)(F)F)cc4)n3)cc2)SC)c(C)c1 [Molecule A2, (Z)-Methyl N-(4-methoxy-2-methylphenyl)-N′-((4-(1-(4-(trifluoromethyl)phenyl)-1H-1,2,4-triazol-3-yl)phenyl)carbamoyl)carbamimidothioate]",50 to 100,–,50 to 100,–,–
"CC(C)c1ccccc1N/C(S)=C/C(=O)Nc1ccc(-c2ncn(-c3ccc(OC(F)(F)F)cc3)n2)cc1 [Molecule A21, 3-((2-isopropylphenyl)amino)-3-thioxo-N-(4-(1-(4-(trifluoromethoxy)phenyl)-1H-1,2,4-triazol-3-yl)phenyl)propanamide]",50 to 100,–,50 to 100,–,–
CCc1ccccc1NC(=O)NC(=O)Nc1ccc(-c2ncn(-c3ccc(OC(F)(F)F)cc3)n2)cc1 [Molecule A52],50 to 100,–,50 to 100,–,–

SMILES,pest or weed control at 50 µg/cm2 (BAW (Spodoptera exigua)) [%],pest or weed control at 0.5 µg/cm2 (CEW (Helicoverpa zea)) [%],pest or weed control at 50 µg/cm2 (CEW (Helicoverpa zea)) [%],Rating BAW (**Tested at 12.5 μg/cm^2) (BAW (Spodoptera exigua); 12.5 μg/cm^2 on diet),Rating CEW (**Tested at 12.5 μg/cm^2) (CEW (Helicoverpa zea); 12.5 μg/cm^2 on diet)
COc1ccc(Cl)cc1N1C(=O)CS/C1=N\C(=O)Nc1ccc(-c2ncn(-c3ccc(OC(F)(F)F)cc3)n2)cc1 [Molecule A111],50 to 100,50 to 100,–,–,–
Cc1c(F)cccc1N/C(S)=N/C(=O)Nc1ccc(-c2ncn(-c3ccc(OC(F)(F)F)cc3)n2)cc1 [Molecule A79],50 to 100,50 to 100,–,–,–
Cc1cc(C)cc(N/C(S)=N/C(=O)Nc2ccc(-c3ncn(-c4ccc(OC(F)(F)F)cc4)n3)cc2)c1 [Molecule A100],50 to 100,50 to 100,–,–,–
"CC(C)C(=O)OCS/C(=N\C(=O)Nc1ccc(-c2ncn(-c3ccc(OC(F)(F)C(F)(F)F)cc3)n2)cc1)Nc1ccccc1C(C)C [Molecule A6, (Z)—((N-(2-Isopropylphenyl)-N′-((4-(1-(4-(pentafluoroethoxy)phenyl)-1H-1,2,4-triazol-3-yl)phenyl)carbamoyl)carbamimidoyl)thio)methyl isobutyrate]",50 to 100,–,50 to 100,–,–
CC(C)c1cc(F)ccc1N1C(=O)CS/C1=N\C(=O)Nc1ccc(-c2ncn(-c3ccc(OC(F)(F)F)cc3)n2)cc1 [Molecule A117],50 to 100,50 to 100,–,–,–
COc1ccc(NC(NC(=O)Nc2ccc(-c3ncn(-c4ccc(OC(F)(F)F)cc4)n3)cc2)SCOC(=O)C(C)C)c(C)c1 (stereo not drawn) [Molecule A56],50 to 100,–,50 to 100,–,–
Cc1ccc(F)c(N2C(=O)CS/C2=N\C(=O)Nc2ccc(-c3ncn(-c4ccc(OC(F)(F)F)cc4)n3)cc2)c1 [Molecule A94],50 to 100,50 to 100,–,–,–
Cc1ccc(C(C)C)c(N2C(=O)CS/C2=N\C(=O)Nc2ccc(-c3ncn(-c4ccc(OC(F)(F)F)cc4)n3)cc2)c1 [Molecule A87],50 to 100,50 to 100,–,–,–
CCc1cccc(C)c1N1C(=O)CS/C1=N\C(=O)Nc1ccc(-c2ncn(-c3ccc(OC(F)(F)F)cc3)n2)cc1 [Molecule A103],50 to 100,50 to 100,–,–,–
Cc1ccccc1NC(=O)NC(=O)Nc1ccc(-c2ncn(-c3ccc(OC(F)(F)F)cc3)n2)cc1 [Molecule A51],50 to 100,–,50 to 100,–,–
"Cc1ccccc1N/C(S)=C(\C#N)C(=O)Nc1ccc(-c2ncn(-c3ccc(OC(F)(F)F)cc3)n2)cc1 [Molecule A29, (Z)-2-Cyano-3-mercapto-3-(o-tolylamino)-N-(4-(1-(4-(trifluoromethoxy)phenyl)-1H-1,2,4-triazol-3-yl)phenyl)acrylamide]",0 to 50,–,50 to 100,–,–
Cc1cc(C)c(N2/C(=N/C(=O)Nc3ccc(-c4ncn(-c5ccc(OC(F)(F)F)cc5)n4)cc3)SCC2C)c(C)c1 (stereo not drawn) [Molecule A40],–,–,–,A** (50-100),A** (50-100)
CCC1CS/C(=N\C(=O)Nc2ccc(-c3ncn(-c4ccc(OC(F)(F)F)cc4)n3)cc2)N1c1c(C)cc(C)cc1C (stereo not drawn) [Molecule A38],50 to 100,–,50 to 100,–,–
Cc1cccc(Cl)c1N/C(S)=N/C(=O)Nc1ccc(-c2ncn(-c3ccc(OC(F)(F)F)cc3)n2)cc1 [Molecule A70],50 to 100,50 to 100,–,–,–
CC(C)c1ccc(F)cc1N/C(S)=N/C(=O)Nc1ccc(-c2ncn(-c3ccc(OC(F)(F)F)cc3)n2)cc1 [Molecule A82],50 to 100,50 to 100,–,–,–
CCC(C)c1ccccc1N/C(=N\C(=O)Nc1ccc(-c2ncn(-c3ccc(OC(F)(F)F)cc3)n2)cc1)SCOC(=O)C(C)C (stereo not drawn) [Molecule A54],50 to 100,–,50 to 100,–,–
Cc1cccc(N/C(S)=N/C(=O)Nc2ccc(-c3ncn(-c4ccc(OC(F)(F)F)cc4)n3)cc2)c1C(C)C [Molecule A106],50 to 100,50 to 100,–,–,–
O=C(/N=C(\S)Nc1ccccc1Cc1ccccc1)Nc1ccc(-c2ncn(-c3ccc(OC(F)(F)F)cc3)n2)cc1 [Molecule A101],50 to 100,50 to 100,–,–,–
CC(C)n1nccc1N1C(=O)CS/C1=N\C(=O)Nc1ccc(-c2ncn(-c3ccc(OC(F)(F)F)cc3)n2)cc1 [Molecule A121],50 to 100,50 to 100,–,–,–
